Measurements as given in ChEMBL document CHEMBL1152333 (J Nat Prod, 2009).
The source made the active and inactive calls. No cut-off for these calls is given here.

Legend:
N2a [1] = experiment: Inactivation of Kv channel in +30 mV-stimulated mouse N2A cells assessed as decay time constant of inactivated K+ current at 30 uM applied extracellularly (Rvb=1970 +/- 101 ms); assay type: cell-based
[2] = Inhibition of Kv channel in depolarized mouse N2A cells assessed as inhibition of +30 mV-triggered steady state potassium current flow
N2a [3] = experiment: Inactivation of open state of Kv channel in depolarized mouse N2A cells assessed as change in +30 mV-stimulated peak current at 30 uM treated 4 mins before voltage stimulation relative to control; assay type: cell-based
N2a [4] = experiment: Inactivation of open state of Kv channels in depolarized mouse N2A cells assessed as reduction of +30 mV-stimulated peak current magnitude at 30 uM treated 4 mins before voltage stimulation followed by restimulation with +30 mV pulse every 20 seconds measured after 6 mins relative to control; assay type: cell-based; parameters: scale not given: the % may be the effect or the level left
Mus musculus [5] = species: Mus musculus; experiment: Inhibition of Kv potassium channel in mouse N2A assessed as blockade of channel pore at 30 uM in presence of 70 mM intracellular potassium ion; assay type: cell-based
Mus musculus [6] = species: Mus musculus; experiment: Inhibition of Kv potassium channel in mouse N2A assessed as blockade of channel pore at 10 uM in presence of 140 mM intracellular potassium ion; assay type: cell-based
N2a [7] = experiment: Inhibition of Kv potassium channel-induced current in mouse N2A cells assessed as left shift of activation curve; assay type: cell-based
N2a [8] = experiment: Steady state inactivation of Kv potassium channel in -70 mV-activated mouse N2A cells followed by further 10 mV pulse stimulation assessed as reduction in half maximal activation potential at 30 uM (RVb= 10.8 +/- 2.4 mV); assay type: cell-based
N2a [9] = experiment: Steady state inactivation of Kv potassium channel in -70 mV-activated mouse N2A cells followed by further 10 mV pulse stimulation assessed as change in slope factor potential at 30 uM (RVb= 16.1 +/- 1.1 no_unit); assay type: cell-based
[10] = target: Potassium voltage-gated channel subfamily A member 2 (Homo sapiens) (UniProt P16389); experiment: Inhibition of Kv1.2 channel expressed in -70 mV-activated HEK293 cells followed by further 10 mV pulse stimulation assessed as slope factor (RVb= 16.3 +/- 1.8 no_unit); assay type: cell-based
Chain of Potassium voltage-gated channel subfamily A member 2 (Homo sapiens) (P16389 whole entry): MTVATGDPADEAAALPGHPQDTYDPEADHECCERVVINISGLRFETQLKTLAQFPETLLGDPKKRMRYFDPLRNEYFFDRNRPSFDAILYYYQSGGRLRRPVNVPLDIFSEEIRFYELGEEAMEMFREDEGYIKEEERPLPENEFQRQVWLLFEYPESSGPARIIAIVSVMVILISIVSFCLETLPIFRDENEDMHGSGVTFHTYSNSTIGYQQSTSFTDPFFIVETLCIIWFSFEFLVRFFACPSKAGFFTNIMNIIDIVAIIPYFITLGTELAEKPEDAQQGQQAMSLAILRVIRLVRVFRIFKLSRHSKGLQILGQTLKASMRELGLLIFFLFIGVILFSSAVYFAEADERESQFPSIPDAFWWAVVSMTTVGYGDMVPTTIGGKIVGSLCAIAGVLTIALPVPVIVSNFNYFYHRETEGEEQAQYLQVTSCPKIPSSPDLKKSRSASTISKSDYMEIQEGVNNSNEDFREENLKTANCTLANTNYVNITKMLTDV

N2a [11] = experiment: Steady state inactivation of Kv potassium channel in -70 mV-activated mouse N2A cells followed by further 10 mV pulse stimulation assessed as reduction in half maximal activation potential at 30 uM applied intracellularly (RVb= 10.8 +/- 2.4 mV); assay type: cell-based
N2a [12] = experiment: Steady state inactivation of Kv potassium channel in -70 mV-activated mouse N2A cells followed by further 10 mV pulse stimulation assessed as activation slope factor at 30 uM applied intracellularly; assay type: cell-based
N2a [13] = experiment: Steady state inactivation of Kv potassium channel in 10 second long prepulse-activated mouse N2A cells followed by further +70 mV pulse stimulation assessed as reduction in half maximal activation potential at 30 uM (RVb=20.9 +/- 2.1 mV); assay type: cell-based
N2a [14] = experiment: Steady state inactivation of Kv potassium channel in 10 sec long prepulse-activated mouse N2A cells followed by further +70 mV pulse stimulation assessed as change in slope factor potential at 30 uM (Rvb=6.4 +/- 1.1 no_unit); assay type: cell-based
N2a [15] = experiment: Inactivation of Kv channel in +30 mV-stimulated mouse N2A cells assessed as decay time constant of inactivated K+ current at 30 uM applied extracellularly measured after compound washout (Rvb=1970 +/- 101 ms); assay type: cell-based
N2a [16] = experiment: Inactivation of Kv channel in +30 mV-stimulated mouse N2A cells assessed as […] at 30 uM applied extracellularly measured after compound washout (Rvb=1970 +/- 101 ms); assay type: cell-based
N2a [17] = experiment: Inactivation of Kv channel in +30 mV-stimulated mouse N2A cells assessed as decay time constant of inactivated K+ current at 30 uM via bath application measured after 3 mins (Rvb=1567 +/- 104 ms); assay type: cell-based
N2a [18] = experiment: Inactivation of open state of Kv channel in +30 mV-stimulated mouse N2A cells assessed as peak K+ current recovery at 30 uM treated 4 mins before voltage stimulation followed by restimulation with +30 mV pulse every 20 seconds measured after compound washout; assay type: cell-based
N2a [19] = experiment: Inhibition of Kv potassium channel in +10 to +70 mV-stimulated mouse N2A cells at 30 uM; assay type: cell-based
N2a [20] = experiment: Inhibition of Kv potassium channel in +10 to +70 mV-stimulated mouse N2A cells at 10 uM; assay type: cell-based
N2a [21] = experiment: Inactivation of Kv channel in +30 mV-activated mouse N2A cells followed by further +30 mV pulse stimulation assessed as peak K+ current recovery at 30 uM; assay type: cell-based

Work on `CC[C@H]1CN2CC[C@]3(C(=O)Nc4ccccc43)[C@@H]2C[C@@H]1/C(=C\OC)C(=O)OC` [RHYNCHOPHYLLINE] yielded an Activity (N2a [1]) of 60.8 ms, an IC50 [2] of 7.9 µM and an Activity (N2a [3]) of 115%. For the same compound, the Activity (N2a [4]) was 72.5%, the Activity (Mus musculus [5]) was “inactive” and the Activity (Mus musculus [6]) was “inactive”. For the same compound, the Activity (N2a [7]) was “Active”, the Activity (N2a [8]) was -6.5 mV and the Activity (N2a [9]) was 23.2. For the same compound, the Activity [10] was 19.4, the Activity (N2a [11]) was 7.7 mV and the Activity (N2a [12]) was 11.8. It also gave an Activity (N2a [13]) of -34.6 mV, an Activity (N2a [14]) of 3.7 and an Activity (N2a [15]) of 1900 ms. For the same compound, the Activity (N2a [16]) was 93.3 ms, the Activity (N2a [17]) was 35 ms and the Activity (N2a [18]) was 98%. The Activity (N2a [19]) was “Active”, the Activity (N2a [20]) was “Active” and the Activity (N2a [21]) was “inactive”.
